The source of these data is patent publication US20040198716A1, “Cysteine protease inhimbitors” (priority 2001, published 2004).

The target in assay [1] is T1, human recombinant caspase-3 (Homo sapiens, UniProt P42574).
T1 construct: purchased Sigma
T1 sequence (P42574 29-175 limits assumed): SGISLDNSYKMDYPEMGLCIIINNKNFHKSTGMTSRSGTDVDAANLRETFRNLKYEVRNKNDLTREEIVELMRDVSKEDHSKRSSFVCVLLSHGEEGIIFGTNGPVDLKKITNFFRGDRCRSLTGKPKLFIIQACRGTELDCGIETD
T1 sequence (P42574 176-277 limits assumed): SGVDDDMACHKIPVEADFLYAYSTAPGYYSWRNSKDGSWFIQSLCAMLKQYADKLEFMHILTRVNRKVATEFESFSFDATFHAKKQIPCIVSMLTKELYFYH
Nature of the assay: In vitro high throughput caspase-3 assay. Type of assay: biochemical. Particulars: for Percent Activity: percentage of the positive control, 20-250 μM test compound, lower = better inhibition, negative = better than control caspase inhibitor; for Ki: calculated from IC50 according to Equation 1, read-out: Ki(app); for IC50: fixed substrate concentration of 55 μM, inhibitors 75 to 0.067 μM in duplicate. The procedure:
Purified Human recombinant caspase-3, fluorescence labeled substrate (Acetyl-Asp-Glu-Val-Asp-7-amino-4-trifluoromethyl coumarin), and known inhibitor (Z-Asp-Glu-Val-Asp-fluoromethyl ketone) can be purchased from Sigma Chemical Co. (St. Louis, Mo.). The enzyme reactions are carried out at room temperature in 10 mM PIPES pH=7.4, 2 mM EDTA, 0.1% CHAPS, 5 mM DTT reaction buffer. Each well on the 96 well plate contains the above reaction buffer plus 55 μM fluorescence labeled substrate, 0.125 μg caspase-3, and 20-250 μM test compound. Positive and negative controls are present on each assay plate. A standard curve is generated using 7-amino-4-trifluoromethyl coumarin in the concentration range from 0.15 μM to 5.0 μM. The reactions are preferably read every 0.5 hours using a fluorescence microtiter plate reader set for 390 nm excitation and 538 nm emission for the first 4 hours after which the plates are left at room temperature overnight. One reading is taken the next morning as a final measurement.
To determine the caspase inhibitory activity of these compounds, the in vitro high throughput caspase-3 assay presented herein was utilized. Purified human recombinant caspase-3, fluorescence labeled substrate (Acetyl-Asp-Glu-Val-Asp-7-amino-4-trifluoromethyl coumarin), and known inhibitor (Z-Asp-Glu-Val-Asp-fluoromethyl ketone) were purchased from Sigma. The enzyme reactions were carried out at room temperature in 10 mM PIPES pH=7.4, 2 mM EDTA, 0.1% CHAPS, 5 mM DTT reaction buffer. Each well on the 96 well plate contained the above reaction buffer plus 55 μM fluorescence labeled substrate, 0.125 μg caspase-3, and 20-250 μM test compound. Positive and negative controls were present on each assay plate. A standard curve was generated using 7-amino-4-trifluoromethyl coumarin in the concentration range from 0.15 μM to 5.0 μM. The reactions were read every 0.5 hours using a fluorescence microtiter plate reader set for 390 nm excitation and 538 nm emission for the first 4 hours after which the plates were left at room temperature overnight. One reading was taken the next morning as a final measurement.
Ki determinations were carried out using the above assay system. […] Ki(app) was calculated according to Equation 1: [formula]
The concentration of inhibitors ranged from 75 to 0.067 μM with each inhibitor concentration assayed in duplicate. The Km for the substrate was determined from a standard Lineweaver-Burke plot.

For assay [2], the target named is T2, Human Rhinovirus serotype 1A 3C Protease (Human rhinovirus 1A, UniProt P23008).
T2 construct: used to clone the 3C Protease into the expression vector pET16-b; made in house; host or cells: E. coli BL21-DE3-pLys-S
The assay is described as follows: 3C Protease Biochemical Assay (FRET). Particulars: 30° C., 2-6uM substrate, 416 nM 3CP. Here is the method: Human Rhinovirus serotype 1A (ATCC) was used to clone the 3C Protease into the expression vector pET16-b and transformed for production into the E. coli strain BL21-DE3-pLys-S. 3C Protease expression was induced with 1 mM IPTG at 25° C. and purified from the soluble protein extract by chromatography on a SourceQ (Pharmacia) followed by gel filtration. HRV 3CP activity was measured by fluorescence resonance energy transfer using a dimodified decapeptide substrate MOC-[…]DNP-NH2 (7-methoxy coumarin-4-acetic acid fluorochrome and dinitrophenol quencher) with a Km value of 16.8 μM. Inhibition was measured as a change in initial velocity (V0) as a function of inhibitor (I) concentration and substrate (S) concentration. […] Fluorescence was monitored by excitation at 328 nm and emission at 393 nm with 10 nm cutoffs. Data were analyzed with the nonlinear regression analysis program EnzFitter (BioSoft) with the equation:
Ki=(I/((VmaxxS)/V0)/Ks)−I−S
Substrate concentrations used were lower than the Km of the substrate (16.8 uM) so no corrections for an S/Km term were used.

T2 sequence (P23008 1515-1697): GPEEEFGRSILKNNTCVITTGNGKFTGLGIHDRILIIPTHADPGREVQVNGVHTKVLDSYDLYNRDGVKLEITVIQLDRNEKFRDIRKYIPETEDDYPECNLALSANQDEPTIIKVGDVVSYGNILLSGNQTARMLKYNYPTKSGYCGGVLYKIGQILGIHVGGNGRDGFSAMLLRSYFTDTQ

On to `CC(C)=CCC(O)C1CC(=O)c2c(O)ccc(O)c2C1=O` (mixture of isomers) [cpi0138.0001], for which the “Percent Activity” value in assay [1] came out at 22.68%.
The same measure, in the same setting: under `CC(C)=CCC(O)C1CC(=O)c2c(O)ccc(O)c2C1=O` (mixture of isomers) [cpi0138.0002] stands 30.37%.
Consider `O=C1C=CC(=O)c2ccccc21` [cpi0126], for which, in assay [1], the Ki was 0.642 µM, the IC50 (usually the point on the concentration scale where inhibition reaches its midpoint) was found to be 4.04 µM and the “Percent Activity” value was −0.30%. In assay [2], the Ki amounted to 515 µM.
The like results for `CC1=CC(=O)c2ccccc2C1=O` [cpi0127] were, in that order, 0.694 µM, 4.37 µM, 1.32% and 242 µM.
For the compound `O=C1C(Cl)=C(Cl)C(=O)c2ccccc21` [cpi0128], in assay [1], the Ki was 1.05 µM, the IC50 amounted to 6.62 µM and the “Percent Activity” value is given as 1.67%.
Take `O=C1c2ccccc2C(=O)c2c(O)ccc(O)c21` [cpi0130]: the “Percent Activity” value in assay [1] came to 45.72%.
In the case of `O=C(O)c1c(O)c2c(c(O)c1Cl)C(=O)c1ccccc1C2=O` [cpi0136.0001], in assay [1], the Ki is 0.807 µM, the IC50 came out at 5.09 µM and the “Percent Activity” value is on record as −8.938%.
The like results for `O=C1C=CC(=O)c2c(O)cccc21` [cpi0136.0002] were, in that order, 0.0026 µM, 0.02 µM and −6.091%.
The like results for `NC(=O)NN=C1C=CC(=O)c2c(O)cccc21` [cpi0136.0004] were, in that order, 0.0682 µM, 0.43 µM and −3.391%.
The like results for `O=C1c2ccccc2C(=O)c2c1cc(S(=O)(=O)O)c(O)c2O` [cpi0136.0005] were, in that order, 1.41 µM, 8.9 µM and −2.336%.
For `O=C1c2ccccc2C(=O)c2c(O)c(O)cc(O)c21` [cpi0136.0006], in assay [1], the Ki was 0.762 µM, the IC50 turned out to be 4.8 µM and the “Percent Activity” value was −2.295%.
Turning to `Nc1ccc(O)c2c1C(=O)c1ccccc1C2=O` [cpi0136.0007], in assay [1], the Ki was 1.77 µM, the IC50 is 11.2 µM and the “Percent Activity” value is listed as −0.8437%.
For the compound `O=C1C=CC(=NNc2cc([N+](=O)[O-])cc([N+](=O)[O-])c2)c2cccc(O)c21` [cpi0136.0008], in assay [1], the Ki was 0.557 µM, the IC50 was determined as 3.51 µM and the “Percent Activity” value is on record as −0.715%.
With `O=C1C(c2ccc(O)c(O)c2)=C(O)C(=O)c2c(O)cc(O)cc21` [cpi0136.0010], in assay [1], the Ki was 9.76 µM, the IC50 turned out to be 61.5 µM and the “Percent Activity” value is recorded as 1.452%.
The like results for `O=C(O)Cc1cc(O)c2c(c1O)C(=O)c1ccccc1C2=O` [cpi0136.0011] were, in that order, 1.13 µM, 7.13 µM and 2.42%.
As for `Cc1ccc2[nH]c3c(cc(O)c4c(=O)c5ccccc5c(=O)c43)oc2c1` [cpi0136.0017], in assay [1], the Ki is 16.7 µM, the IC50 was 106 µM and the “Percent Activity” value stood at 24.8%.
On to `O=C1C=CC(=NNc2ccc([N+](=O)[O-])cc2[N+](=O)[O-])c2cccc(O)c21` [cpi0136.0020], for which, in assay [1], the Ki was 54.2 µM, the IC50 is 342 µM and the “Percent Activity” value came to 36.98%.
As to `COc1c(C)c([N+](=O)[O-])c(O)c2c1C(=O)c1ccccc1C2=O` [cpi0136.0024], in assay [1], the Ki was 3.05 µM, the IC50 worked out at 19.2 µM and the “Percent Activity” value was found to be 51.3817%.
In the same order, the values of `O=C(COc1cc(O)c2c(=O)cc(-c3ccccc3)oc2c1)OCc1ccccc1` [cpi0136.0025] are 40.5 µM, 255 µM and 54.1256%.
Take `O=C1C(Br)=C(Br)C(=O)c2c1ccc(Br)c2O` [cpi0139]: in assay [1], the Ki was 69.8 µM and the IC50 turned out to be 440 µM. This compound displayed a Ki in assay [2] of 154 µM.
As for `O=C1C(Br)=C(Br)C(=O)c2c(O)c(Br)c(Br)c(O)c21` [cpi0140], in assay [1], the Ki is 0.503 µM and the IC50 came to 3.17 µM.
With `O=C1C(Br)=CC(=O)c2c(O)cccc21` [cpi0141], in assay [1], the Ki is 4.91 µM and the IC50 turned out to be 30.9 µM. In assay [2], this compound returned a Ki of 73 µM.
`CC(=O)OCCNc1cc(Br)c2noc3c2c1C(=O)c1ccccc1-3` [cpi0156.0034]: the “Percent Activity” value in assay [1] is −0.6303%.
The same measure, in the same setting: the same measure for `O=C1c2ccccc2-c2onc3ccc(Oc4c(F)c(F)c(F)c(F)c4F)c1c23` [cpi0156.0042]: 11.08%.
Regarding `O=C1C(Cl)=C(N2CCOCC2)C(=O)c2ccccc21` [cpi0156.0044], in assay [1], the “Percent Activity” value is −1.376%.
Same read-out and setting: under `O=C(NC1CCCCC1)c1ccc2c3c(onc13)-c1ccccc1C2=O` [cpi0156.0045] stands 3.338%.
Same read-out and setting: the same measure for `CC(=O)N(Cc1ccccc1)C1=C(Cl)C(=O)c2ccccc2C1=O` [cpi0156.0046]: −1.772%.
Same read-out and setting: the same measure for `O=C1c2ccccc2-c2onc3c(N4CCN(c5ccccc5)CC4)ccc1c23` [cpi0156.0047]: 28.63%; for `O=C1c2ccccc2-c2onc3c(N4CCCCC4)cc(Nc4ccccc4)c1c23` [cpi0156.0048]: 18.82%; for `CNc1cc(Nc2ccccc2)c2c3c(onc13)-c1ccccc1C2=O` [cpi0156.0051]: 6.782%.
As to `CN(C)c1cc(Nc2ccccc2)c2c3c(onc13)-c1ccccc1C2=O` [cpi0156.0052], the “Percent Activity” value in assay [1] is 31.97%.
As to `COc1ccc2noc3c2c1C(=O)c1ccccc1-3` [cpi0156.0054], in assay [1], the “Percent Activity” value is recorded as −3.264%.
Same read-out and setting: the same measure for `Cc1cccc(Oc2ccc3noc4c3c2C(=O)c2ccccc2-4)c1` [cpi0156.0055]: −1.448%; for `O=C1c2ccccc2-c2onc3ccc(Cl)c1c23` [cpi0156.0056]: 1.882%; for `COc1ccc2c(c1OC)C(=O)OC2CC(=O)c1ccc(O)cc1O` (stereo not shown) [cpi0156.D1]: 24.72%.
In the case of `O=C(NN=Cc1ccccc1)C12CC3CC(C1)CC(C(=O)NN=Cc1ccccc1)(C3)C2` [cpi0157.B2], in assay [1], the Ki is 52.8 µM and the “Percent Activity” value was determined as 50.76%.
`Cc1cc(C(=O)NN)c2cc(Br)ccc2n1` [cpi0157.C3]: in assay [1], the Ki was 131 µM, the IC50 stood at 825 µM and the “Percent Activity” value was determined as 36.41%.
In the same order, the values of `N#CC1=C(N)SC(N)=C(C#N)C1c1cccc(F)c1` [cpi0157.F9] are 39.9 µM, 251 µM and 31.50%.
As to `N#CC1=C(N)NC(SCc2ccccc2)=C(C#N)C12CCCC2` [cpi0157.F10], in assay [1], the Ki is 14.5 µM, the IC50 amounted to 91 µM and the “Percent Activity” value is on record as 19.48%.
As for `COc1cc(NC2OC(CO)C(O)C(O)C2O)ccc1C` (stereo not shown) [cpi0159.C3], in assay [1], the “Percent Activity” value turned out to be 33.47%.
As for `O=C(O)C1Cc2c([nH]c3ccccc23)C(c2ccncc2)N1` (stereo not shown) [cpi0190], in assay [1], the Ki is 0.0054 µM and the IC50 came to 0.03 µM.
